Source: ChEMBL document CHEMBL1147026, “Synthesis of pseudopeptides based L-tryptophan as a potential antimicrobial agent” (Bioorg Med Chem Lett, 2007)
≈ marks a conversion by molar mass, not a printed value. Calls of active or inactive are those of the source. The calls are words filed in the database; no cut-off is given here.

How the values were obtained:
[1] = system: Staphylococcus aureus; experiment: Antibacterial activity against methicillin-resistant Staphylococcus aureus CMAH 0515 upto 128 ug/mL after 24 hrs by two fold dilution method; format: functional, organism-based
[2] = system: Klebsiella aerogenes; experiment: Antibacterial activity against Enterobacter aerogenes CMCC(B) 45103 upto 128 ug/mL after 24 hrs by two fold dilution method; format: functional, organism-based
[3] = system: Candida albicans; experiment: Antifungal activity against fluconazole-resistant Candida albicans CMAH 0520 after 48 to 72 hrs by broth microdilution method; format: functional
[4] = system: Candida albicans; experiment: Antifungal activity against Candida albicans CMAH 0501 after 48 to 72 hrs by broth microdilution method; format: functional
[5] = system: Aspergillus sp.; experiment: Antifungal activity against Aspergillus sp. after 48 to 72 hrs by broth microdilution method; format: functional; conditions: Aspergillus sp.
[6] = system: Escherichia coli; experiment: Antimicrobial activity against Escherichia coli ATCC 25922 upto 128 ug/mL after 24 hrs by two fold dilution method; format: functional, organism-based
[7] = system: Candida albicans; experiment: Antifungal activity against Candida albicans CMAM 0577 upto 128 ug/mL after 48 to 72 hrs by broth microdilution method; format: functional, organism-based
[8] = system: Candida albicans; experiment: Antifungal activity against fluconazole-resistant Candida albicans CMAM 0597 upto 128 ug/mL after 48 to 72 hrs by broth microdilution method; format: functional, organism-based
[9] = system: Candida albicans; experiment: Antifungal activity against Candida albicans CMAH 0572 upto 128 ug/mL after 48 to 72 hrs by broth microdilution method; format: functional, organism-based
[10] = system: Candida albicans; experiment: Antifungal activity against Candida albicans CMAM 0594 upto 128 ug/mL after 48 to 72 hrs by broth microdilution method; format: functional, organism-based
[11] = system: Candida albicans; experiment: Antifungal activity against Candida albicans ATCC 10231 after 48 to 72 hrs by broth microdilution method; format: functional
[12] = system: Saccharomyces cerevisiae; experiment: Antimicrobial activity against Saccharomyces cerevisiae upto 128 ug/mL after 48 to 72 hrs by broth microdilution method; format: functional, organism-based
[13] = system: Candida albicans; experiment: Antifungal activity against Candida albicans CMAH 0503 after 48 to 72 hrs by broth microdilution method; format: functional
[14] = system: Staphylococcus aureus; experiment: Antibacterial activity against methicillin-susceptible Staphylococcus aureus ATCC 25923 after 24 hrs by two fold dilution method; format: functional; conditions: ATCC 25923, 24 h
[15] = system: Candida albicans; experiment: Antifungal activity against Candida albicans CMAH 0511 after 48 to 72 hrs by broth microdilution method; format: functional
[16] = system: Micrococcus luteus; experiment: Antimicrobial activity against Micrococcus luteus CMCC(B) 28001 upto 128 ug/mL after 24 hrs by two fold dilution method; format: functional, organism-based
[17] = system: Rhodotorula glutinis; experiment: Antimicrobial activity against Rhodotorula glutinis SYM 2209 after 48 to 72 hrs by broth microdilution method; format: functional
[18] = system: Cryptococcus neoformans; experiment: Antifungal activity against Cryptococcus neoformans ATCC 90112 upto 128 ug/mL after 48 to 72 hrs by broth microdilution method; format: functional, organism-based
[19] = system: Staphylococcus aureus; experiment: Antibacterial activity against methicillin-resistant Staphylococcus aureus CMAH 0430 upto 128 ug/mL after 24 hrs by two fold dilution method; format: functional, organism-based
[20] = system: Staphylococcus aureus; experiment: Antibacterial activity against methicillin-resistant Staphylococcus aureus CMAH 0504 upto 128 ug/mL by two fold dilution method; format: functional, organism-based
[21] = system: Candida albicans; experiment: Antifungal activity against Candida albicans CMAH 0527 after 48 to 72 hrs by broth microdilution method; format: functional
[22] = system: Pseudomonas aeruginosa; experiment: Antimicrobial activity against Pseudomonas aeruginosa ATCC 27853 upto 128 ug/mL after 24 hrs by two fold dilution method; format: functional, organism-based
[23] = system: Proteus vulgaris; experiment: Antimicrobial activity against Proteus vulgaris CMCC(B) 49001 upto 128 ug/mL after 24 hrs by two fold dilution method; format: functional, organism-based
[24] = system: Candida albicans; experiment: Antifungal activity against Candida albicans CMAM 0592 upto 128 ug/mL after 48 to 72 hrs by broth microdilution method; format: functional, organism-based
[25] = system: Candida albicans; experiment: Antifungal activity against Candida albicans CMAH 0507 after 48 to 72 hrs by broth microdilution method; format: functional
[26] = system: Bacillus subtilis; experiment: Antimicrobial activity against Bacillus subtilis after 24 hrs by two fold dilution method; format: functional

## COC(=O)[C@H](Cc1c[nH]c2ccccc12)NC(=O)c1cccc(C(=O)N[C@@H](Cc2c[nH]c3ccccc23)C(=O)OC)n1
[1]
  Activity: inactive
[2]
  Activity: inactive
[3]
  MIC: 64 µg/mL (≈ 113 µM)
[4]
  MFC: 128 µg/mL (≈ 226 µM)
  MIC: 32 µg/mL (≈ 56.4 µM)
[5]
  MIC50: > 128 µg/mL
  MIC90: > 128 µg/mL
[6]
  Activity: inactive
[7]
  Activity: inactive
[8]
  Activity: inactive
[9]
  Activity: inactive
[10]
  Activity: inactive
[11]
  MFC: 128 µg/mL (≈ 226 µM)
  MIC: 32 µg/mL (≈ 56.4 µM)
[12]
  Activity: inactive
[13]
  MFC: 128 µg/mL (≈ 226 µM)
  MIC: 32 µg/mL (≈ 56.4 µM)
[14]
  MIC: 64 µg/mL (≈ 113 µM)
[15]
  MBC: 128 µg/mL (≈ 226 µM)
  MIC: 32 µg/mL (≈ 56.4 µM)
[16]
  Activity: inactive
[17]
  MFC: 128 µg/mL (≈ 226 µM)
  MIC: 32 µg/mL (≈ 56.4 µM)
[18]
  Activity: inactive
[19]
  Activity: inactive
[20]
  Activity: inactive
[21]
  MBC: 128 µg/mL (≈ 226 µM)
  MIC: 32 µg/mL (≈ 56.4 µM)
[22]
  Activity: inactive
[23]
  Activity: inactive
[24]
  Activity: inactive
[25]
  MIC: 64 µg/mL (≈ 113 µM)
[26]
  MBC: > 128 µg/mL
  MIC: 32 µg/mL (≈ 56.4 µM)
